Measured values from publication PMC12541891 (MicrobiologyOpen, 2025).
Values after ≈ are worked out from the molar mass of the structure shown.

Key:
C. krusei biofilm [1] = assay: Biofilm metabolic activity by XTT-reduction assay; assay type: cell-based, Candida krusei
Protocol: (§1) For all bacterial strains considered in the study, biofilm was performed on a 96‐well plate inoculated with 200 µL of a bacterial suspension 1 × 10^6 CFU/mL and incubated 24 h at 37°C. After incubation for 4 h at 37°C, the medium was aspirated, non‐adherent cells were removed, washed with PBS and added with 200 µL of fresh medium. […] Similarly, to perform fungal biofilm, the different Candida species were grown for 24 h at 28°C on a multi‐wells plate, washed twice with sterile PBS, and then resuspended at 37°C in RPMI 1640 plus 10% FBS at 2.5 × 10^7 cells. After incubation for 3 h at 37°C in six‐well polystyrene plates, the medium was aspirated, non‐adherent cells were removed and washed with PBS.
(§2) The biofilm metabolic activity was evaluated by XTT assay, that highpoints the activity through the reduction of the tetrazolium salt to formazan. After the removal of supernatant and washing with PBS, a solution of XTT‐menadione solution were added to wells. The XTT‐menadione was prepared dissolving XTT powder in prewarmed PBS (37°C) at 0.5 g/L. The solution was sterilized through a 0.22 μm pore size filter. Before each assay, the XTT solution was thawed and supplemented with menadione, a 10 mM stock dissolved in acetone to a final concentration 1 μM. Plates were incubated for 3 h at 37°C in the dark and then the absorbance was measured at 492 nm using the microplate reader, Tecan Sunrise.

C. albicans biofilm [2] = assay: Biofilm biomass by crystal violet (CV) assay; assay type: cell-based, Candida albicans
Protocol: as §1
(§3) To quantify bacterial and Candida biofilm biomass, CV, a dye able to color the biofilm matrix, was used. Firstly, after the removal of supernatant and washing with PBS, biofilm was fixed adding 100 µL of 99% methanol for 15 min. Then, methanol was rinsed off and the plates were air‐dried. Subsequently, 100 µL of a 0.1% of CV solution were added to wells and, after 20 min of contact, the plates were washed under running tap water. To dissolve the bounded CV, 150 µL of 33% of glacial acetic acid were added to wells. The absorbance was measured at 590 nm using an automatic microplate reader, Tecan Sunrise (Tecan Group Ltd., Männedorf, Switzerland).

C. glabrata biofilm [3] = assay: Biofilm metabolic activity by XTT-reduction assay; assay type: cell-based, Candida glabrata
Protocol: as §1, §2

C. krusei biofilm [4] = assay: Biofilm biomass by crystal violet (CV) assay; assay type: cell-based, Candida krusei
Protocol: as §1, §3

C. glabrata biofilm [5] = assay: Biofilm biomass by crystal violet (CV) assay; assay type: cell-based, Candida glabrata
Protocol: as §1, §3

C. albicans biofilm [6] = assay: Biofilm metabolic activity by XTT-reduction assay; assay type: cell-based, Candida albicans
Protocol: as §1, §2

S. aureus biofilm [7] = assay: Biofilm biomass by crystal violet (CV) assay; assay type: cell-based, Staphylococcus aureus
Protocol: as §1, §3

MRSA biofilm [8] = assay: Biofilm biomass by crystal violet (CV) assay; assay type: cell-based, Staphylococcus aureus
Protocol: as §1, §3

C. tropicalis biofilm [9] = assay: Biofilm metabolic activity by XTT-reduction assay; assay type: cell-based, Candida tropicalis; details: biofilm in formation (3 h), substance alone at MIC
Protocol: as §1, §2

[10] = test system: Extended Spectrum-Beta-Lactamase producing E. coli (ESBL-Ec); assay: MIC and MBC by microbroth dilution; assay type: cell-based; details: Escherichia coli, ESBL-Ec
Protocol: (§4) No substance was added, in one well, for growth control. A bacterial suspension of 1 × 10^8 CFU/mL was inoculated into all wells of the plate and incubated for 24 h at 37°C. […] The dilutions ranged from 4 to 2000 µg/mL for the substances. The inoculum size was about 2.5×10^3 cells/mL. The plates were incubated at 28°C for 24–48 h. The MIC was determined as the lowest substances' concentration where no visible bacterial or fungal growth was observed. […] Each antimicrobial assay was performed in triplicate.

[11] = test system: Escherichia coli MG1655 (ATCC 700926); assay: MIC and MBC by microbroth dilution; assay type: cell-based
Protocol: as §4

[12] = test system: Staphylococcus aureus ATCC 6538; assay: MIC and MBC by microbroth dilution; assay type: cell-based
Protocol: as §4

[13] = test system: methicillin resistant S. aureus (MRSA); assay: MIC and MBC by microbroth dilution; assay type: cell-based; details: Staphylococcus aureus
Protocol: as §4

C. glabrata DSY562 = assay: MIC and MFC by microbroth dilution; assay type: cell-based, Candida glabrata; details: Nakaseomyces glabratus, DSY562, C. glabrata
Protocol: as §4

ESBL-Ec biofilm [14] = assay: Biofilm biomass by crystal violet (CV) assay; assay type: cell-based, Escherichia coli
Protocol: as §1, §3

E. coli biofilm [15] = assay: Biofilm biomass by crystal violet (CV) assay; assay type: cell-based, Escherichia coli
Protocol: as §1, §3

C. krusei 44956 = assay: MIC and MFC by microbroth dilution; assay type: cell-based, Candida krusei; details: Pichia kudriavzevii, 44956, C. krusei
Protocol: as §4

ESBL-Ec biofilm [16] = assay: Biofilm metabolic activity by XTT-reduction assay; assay type: cell-based, Escherichia coli
Protocol: as §1, §2

E. coli biofilm [17] = assay: Biofilm metabolic activity by XTT-reduction assay; assay type: cell-based, Escherichia coli
Protocol: as §1, §2

C. albicans AIDS 68 = assay: MIC and MFC by microbroth dilution; assay type: cell-based; details: Candida albicans, AIDS68, C. albicans
Protocol: as §4

C. tropicalis 45,615 = assay: MIC and MFC by microbroth dilution; assay type: cell-based; details: Candida tropicalis, C. tropicalis
Protocol: as §4

S. aureus biofilm [18] = assay: Biofilm metabolic activity by XTT-reduction assay; assay type: cell-based, Staphylococcus aureus
Protocol: as §1, §2

MRSA biofilm [19] = assay: Biofilm metabolic activity by XTT-reduction assay; assay type: cell-based, Staphylococcus aureus
Protocol: as §1, §2

C. tropicalis biofilm [20] = assay: Biofilm biomass by crystal violet (CV) assay; assay type: cell-based, Candida tropicalis; details: substance alone at MIC
Protocol: as §1, §3

[21] = preformed biofilm, sub-MIC concentrations alone or in combination (Table 5)
[22] = biofilm in formation, sub-MIC concentrations alone or in combination (Table 5)
[23] = biofilm in formation (3 h), substance alone at MIC
[24] = preformed biofilm (24 h), substance alone at MIC
[25] = biofilm in formation (3 h), substance alone at MIC, listed as thymol
[26] = biofilm in formation, sub-MIC concentrations alone or in combination (Table 5), listed as T
[27] = biofilm in formation (4 h), substance alone at MIC
[28] = planktonic, 24 h, read-out: MIC
[29] = planktonic, 24-48 h, read-out: MIC

Compound: OC(Cn1cncn1)(Cn1cncn1)c1ccc(F)cc1F [FLC, fluconazole, reference compound]
- Percentage of metabolic activity reduction (C. krusei biofilm [1]; [21]): 14%
- Percentage of biomass reduction (C. albicans biofilm [2]; [22]): 30.6%
- Percentage of metabolic activity reduction (C. glabrata biofilm [3]; [22]): 27.1%
- Percentage of metabolic activity reduction (C. glabrata biofilm [3]; [21]): 5.3%
- Percentage of biomass reduction (C. krusei biofilm [4]; [21]): 14%
- Percentage of biomass reduction (C. glabrata biofilm [5]; [22]): 20.5%
- Percentage of metabolic activity reduction (C. albicans biofilm [6]; [22]): 25.1%
- Percentage of metabolic activity reduction (C. albicans biofilm [6]; [21]): 6.9%

Compound: Cc1ccc(C(C)C)c(O)c1 [Thymol, 2‐isopropyl‐5‐methylphenol]
- Percentage of metabolic activity reduction (C. krusei biofilm [1]; [23]): 71.7%
- Percentage of metabolic activity reduction (C. krusei biofilm [1]; [22]): 25%
- Percentage of metabolic activity reduction (C. krusei biofilm [1]; [24]): 47%
- Percentage of metabolic activity reduction (C. krusei biofilm [1]; [21]): 25.1%
- Percentage of biomass reduction (C. albicans biofilm [2]; [23]): 44.6%
- Percentage of biomass reduction (C. albicans biofilm [2]; [25]): about 40%
- Percentage of biomass reduction (C. albicans biofilm [2]; [22]): about 22%
- Percentage of biomass reduction (C. albicans biofilm [2]; [26]): 22.5%
- Percentage of biomass reduction (S. aureus biofilm [7]; [27]): 79.7%
- Percentage of biomass reduction (S. aureus biofilm [7]; [26]): 11.6%
- Percentage of biomass reduction (S. aureus biofilm [7]; [24]): 82.7%
- Percentage of biomass reduction (MRSA biofilm [8]; [27]): 90%
- Percentage of biomass reduction (MRSA biofilm [8]; [26]): 22.6%
- Percentage of biomass reduction (MRSA biofilm [8]; [24]): 87%
- Percentage of biomass reduction (MRSA biofilm [8]; [21]): 31.3%
- Percentage of metabolic activity reduction (C. tropicalis biofilm [9]): 53.9%
- MIC [10, 28]: 125 µg/mL (≈ 832 µM)
- MBC ([10]; read-out: MBC): 250 µg/mL (≈ 1660 µM)
- MIC ([11]; E. coli MG1655, planktonic, 24 h, read-out: MIC): 125 µg/mL (≈ 832 µM)
- MBC ([11]; E. coli MG1655, read-out: MBC): 250 µg/mL (≈ 1660 µM)
- MIC ([12]; ATCC6538, S. aureus 6538, planktonic, 24 h, read-out: MIC): 250 µg/mL (≈ 1660 µM)
- MBC ([12]; ATCC6538, S. aureus 6538, read-out: MBC): 250 µg/mL (≈ 1660 µM)
- MIC [13, 28]: 250 µg/mL (≈ 1660 µM)
- MBC ([13]; read-out: MBC): 250 µg/mL (≈ 1660 µM)
- MIC (C. glabrata DSY562; [29]): ≥ 2000 µg/mL
- MFC (C. glabrata DSY562; read-out: MFC): ≥ 2000 µg/mL
- Percentage of metabolic activity reduction (C. glabrata biofilm [3]; [23]): 90%
- Percentage of metabolic activity reduction (C. glabrata biofilm [3]; [24]): 9.6%
- Percentage of metabolic activity reduction (C. glabrata biofilm [3]; [21]): 11.4%
- Percentage of biomass reduction (ESBL-Ec biofilm [14]; [27]): 70%
- Percentage of biomass reduction (ESBL-Ec biofilm [14]; [24]): 69.8%
- Percentage of biomass reduction (E. coli biofilm [15]; [27]): 87.7%
- Percentage of biomass reduction (E. coli biofilm [15]; [24]): 87%
- Percentage of biomass reduction (C. krusei biofilm [4]; [23]): no effect
- Percentage of biomass reduction (C. krusei biofilm [4]; [24]): 18.5%
- MIC (C. krusei 44956; [29]): ≥ 2000 µg/mL
- MFC (C. krusei 44956; read-out: MFC): ≥ 2000 µg/mL
- Percentage of biomass reduction (C. glabrata biofilm [5]; [23]): 52.1%
- Percentage of biomass reduction (C. glabrata biofilm [5]; [25]): about 40%
- Percentage of biomass reduction (C. glabrata biofilm [5]; [24]): 17.5%
- Percentage of metabolic activity reduction (ESBL-Ec biofilm [16]; [27]): 77.9%
- Percentage of metabolic activity reduction (ESBL-Ec biofilm [16]; [22]): ~50%
- Percentage of metabolic activity reduction (ESBL-Ec biofilm [16]; [26]): 52%
- Percentage of metabolic activity reduction (ESBL-Ec biofilm [16]; [24]): 74%
- Percentage of metabolic activity reduction (E. coli biofilm [17]; [27]): 84.8%
- Percentage of metabolic activity reduction (E. coli biofilm [17]; [22]): ~50%
- Percentage of metabolic activity reduction (E. coli biofilm [17]; [26]): 51.3%
- Percentage of metabolic activity reduction (E. coli biofilm [17]; [24]): 74%
- Percentage of metabolic activity reduction (E. coli biofilm [17]; [21]): 22.4%
- MIC (C. albicans AIDS 68; [29]): ≥ 2000 µg/mL
- MFC (C. albicans AIDS 68; read-out: MFC): ≥ 2000 µg/mL
- MIC (C. tropicalis 45,615; [29]): ≥ 2000 µg/mL
- MFC (C. tropicalis 45,615; read-out: MFC): ≥ 2000 µg/mL
- Percentage of metabolic activity reduction (S. aureus biofilm [18]; [27]): 90%
- Percentage of metabolic activity reduction (S. aureus biofilm [18]; [26]): 12%
- Percentage of metabolic activity reduction (S. aureus biofilm [18]; [24]): 90%
- Percentage of metabolic activity reduction (MRSA biofilm [19]; [27]): 96.3%
- Percentage of metabolic activity reduction (MRSA biofilm [19]; [24]): 97.5%
- Percentage of metabolic activity reduction (MRSA biofilm [19]; [21]): 17.2%
- Percentage of metabolic activity reduction (C. albicans biofilm [6]; [23]): 85.1%
- Percentage of metabolic activity reduction (C. albicans biofilm [6]; [22]): about 22%
- Percentage of metabolic activity reduction (C. albicans biofilm [6]; [26]): 24.0%
- Percentage of metabolic activity reduction (C. albicans biofilm [6]; [24]): 84.1%
- Percentage of metabolic activity reduction (C. albicans biofilm [6]; preformed biofilm (24 h), substance alone at MIC, listed as thymol): 80%
- Percentage of metabolic activity reduction (C. albicans biofilm [6]; [21]): 9.0%
- Percentage of biomass reduction (C. tropicalis biofilm [20]; biofilm in formation (3 h)): 37.1%
- Percentage of biomass reduction (C. tropicalis biofilm [20]; biofilm in formation (3 h), listed as thymol): about 40%
- Percentage of biomass reduction (C. tropicalis biofilm [20]; preformed biofilm (24 h)): 11.8%

Compound: CNC(C)C1CCC(N)C(OC2C(N)CC(N)C(OC3OCC(C)(O)C(NC)C3O)C2O)O1 (stereo not shown) [GM, gentamicin, reference compound]
- Percentage of biomass reduction (MRSA biofilm [8]; [22]): 57.6%
- Percentage of biomass reduction (MRSA biofilm [8]; [21]): 33.6%
- Percentage of biomass reduction (ESBL-Ec biofilm [14]; [22]): 66.7%
- Percentage of biomass reduction (ESBL-Ec biofilm [14]; [21]): 48.9%
- Percentage of biomass reduction (E. coli biofilm [15]; [22]): 48%
- Percentage of biomass reduction (E. coli biofilm [15]; [21]): 59.8%
- Percentage of metabolic activity reduction (ESBL-Ec biofilm [16]; [22]): 50%
- Percentage of metabolic activity reduction (E. coli biofilm [17]; [22]): 35.9%
- Percentage of metabolic activity reduction (E. coli biofilm [17]; [21]): 48.3%
- Percentage of metabolic activity reduction (S. aureus biofilm [18]; [21]): 15.2%
- Percentage of metabolic activity reduction (MRSA biofilm [19]; [22]): 22.3%
- Percentage of metabolic activity reduction (MRSA biofilm [19]; [21]): 16%
